Measurements as given in patent publication US9682141B2, “Combination of kinase inhibitors and uses thereof” (INTELLIKINE LLC, priority 2011, dated 2017).
Read-outs that look alike come from different tables or passages of the source.

Assays:
Type in all cases: biochemical
[1] = biological target: PI3K β (Homo sapiens (Human), UniProt P42338); experiment: PI 3-Kinase (human) HTRF assay, p110β/p85α
[2] = biological target: PI3K α (Homo sapiens (Human), UniProt P42336); experiment: PI 3-Kinase (human) HTRF assay, p110α/p85α
[3] = biological target: mTORC (Homo sapiens (Human), UniProt P42345); experiment: mTOR inhibition assay (radiometric or LanthaScreen TR-FRET)
Method: The compounds described herein can be tested against recombinant mTOR (Invitrogen) in an assay containing 50 mM HEPES, pH 7.5, 1 mM EGTA, 10 mM MgCl2, 2.5 mM, 0.01% Tween, 10 μM ATP (2.5 μCi of μ-32P-ATP), and 3 μg/mL BSA. Rat recombinant PHAS-1/4EBP1 (Calbiochem; 2 mg/mL) is used as a substrate. Reactions are terminated by spotting onto nitrocellulose, which is washed with 1M NaCl/1% phosphoric acid (approximately 6 times, 5-10 minutes each). Sheets are dried and the transferred radioactivity quantitated by phosphorimaging.
For instance, one can use Invitrogen's LanthaScreen™ Kinase assay to test the inhibitors of mTOR disclosed herein. This assay is a time resolved FRET platform that measures the phosphorylation of GFP labeled 4EBP1 by mTOR kinase. The kinase reaction is performed in a white 384 well microtitre plate. The total reaction volume is 20 ul per well and the reaction buffer composition is 50 mM HEPES pH7.5, 0.01% Polysorbate 20, 1 mM EGTA, 10 mM MnCl2, and 2 mM DTT. In the first step, each well receives 2 ul of test compound in 20% dimethylsulphoxide resulting in a 2% DMSO final concentration. Next, 8 ul of mTOR diluted in reaction buffer is added per well for a 60 ng/ml final concentration. To start the reaction, 10 ul of an ATP/GFP-4EBP1 mixture (diluted in reaction buffer) is added per well for a final concentration of 10 μM ATP and 0.5 μM GFP-4EBP1. The plate is sealed and incubated for 1 hour at room temperature. […] The plate is sealed, incubated for 1 hour at room temperature, and then read on a plate reader set up for LanthaScreen™ TR-FRET. Data is analyzed and IC50s are generated using GraphPad Prism 5.

[4] = biological target: PI3K δ (Homo sapiens (Human), UniProt O00329); experiment: PI 3-Kinase (human) HTRF assay, p110δ/p85α
[5] = biological target: PI3K γ (Homo sapiens (Human), UniProt P48736); experiment: PI 3-Kinase (human) HTRF assay, p110γ
Method: An exemplary system is PI 3-Kinase (human) HTRF™ Assay from Upstate. […] Briefly, the assay is a time resolved FRET assay that indirectly measures PIP3 product formed by the activity of a PI3-K. The kinase reaction is performed in a microtitre plate (e.g., a 384 well microtitre plate). The total reaction volume is approximately 20 ul per well. In the first step, each well receives 2 ul of test compound in 20% dimethylsulphoxide resulting in a 2% DMSO final concentration. Next, approximately 14.5 ul of a kinase/PIP2 mixture (diluted in 1× reaction buffer) is added per well for a final concentration of 0.25-0.3 ug/ml kinase and 10 μM PIP2. The plate is sealed and incubated for 15 minutes at room temperature. To start the reaction, 3.5 ul of ATP (diluted in 1× reaction buffer) is added per well for a final concentration of 10 μM ATP. The plate is sealed and incubated for 1 hour at room temperature. The reaction is stopped by adding 5 ul of Stop Solution per well and then 5 ul of Detection Mix is added per well. The plate is sealed, incubated for 1 hour at room temperature, and then read on an appropriate plate reader. Data is analyzed and IC50s are generated using GraphPad Prism 5. For PI3K α, β, δ, and γ, the nM concentration of inhibitor to reach IC50 is provided.

[6] = PI 3-Kinase (human) HTRF assay, p110δ/p85α; details: read-out: PI3K γ IC50

Sequence of mTORC (P42345 1360-2549): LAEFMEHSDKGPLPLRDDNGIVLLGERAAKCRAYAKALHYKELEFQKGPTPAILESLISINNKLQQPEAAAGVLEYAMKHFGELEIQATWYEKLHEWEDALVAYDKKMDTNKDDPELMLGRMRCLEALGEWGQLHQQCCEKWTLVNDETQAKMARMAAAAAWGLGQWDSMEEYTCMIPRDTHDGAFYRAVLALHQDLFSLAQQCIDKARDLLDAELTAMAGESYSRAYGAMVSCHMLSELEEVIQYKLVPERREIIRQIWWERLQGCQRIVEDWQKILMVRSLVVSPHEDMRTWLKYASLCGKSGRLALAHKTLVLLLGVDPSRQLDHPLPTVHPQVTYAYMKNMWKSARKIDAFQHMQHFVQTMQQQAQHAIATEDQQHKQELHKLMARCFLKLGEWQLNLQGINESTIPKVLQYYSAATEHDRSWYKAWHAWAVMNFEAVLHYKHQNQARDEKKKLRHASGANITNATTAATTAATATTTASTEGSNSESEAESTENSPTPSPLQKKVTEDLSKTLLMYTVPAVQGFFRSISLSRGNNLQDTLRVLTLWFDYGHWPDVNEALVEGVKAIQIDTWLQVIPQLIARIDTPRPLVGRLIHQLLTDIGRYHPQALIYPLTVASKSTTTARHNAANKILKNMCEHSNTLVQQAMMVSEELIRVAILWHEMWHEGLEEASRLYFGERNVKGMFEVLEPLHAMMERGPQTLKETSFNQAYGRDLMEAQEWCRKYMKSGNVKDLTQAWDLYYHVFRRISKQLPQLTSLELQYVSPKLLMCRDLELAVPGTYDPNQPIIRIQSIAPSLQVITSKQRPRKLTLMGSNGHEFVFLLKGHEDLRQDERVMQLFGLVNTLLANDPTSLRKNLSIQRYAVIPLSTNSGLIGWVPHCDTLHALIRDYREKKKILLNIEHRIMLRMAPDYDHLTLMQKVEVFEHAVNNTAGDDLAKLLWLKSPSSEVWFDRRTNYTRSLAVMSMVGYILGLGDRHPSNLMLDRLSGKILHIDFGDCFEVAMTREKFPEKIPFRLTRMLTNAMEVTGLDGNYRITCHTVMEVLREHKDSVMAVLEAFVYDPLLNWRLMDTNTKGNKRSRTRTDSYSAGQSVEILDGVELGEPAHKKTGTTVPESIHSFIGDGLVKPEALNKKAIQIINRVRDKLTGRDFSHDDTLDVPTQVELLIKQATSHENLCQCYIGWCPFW
Sequence of PI3K δ (O00329 whole entry): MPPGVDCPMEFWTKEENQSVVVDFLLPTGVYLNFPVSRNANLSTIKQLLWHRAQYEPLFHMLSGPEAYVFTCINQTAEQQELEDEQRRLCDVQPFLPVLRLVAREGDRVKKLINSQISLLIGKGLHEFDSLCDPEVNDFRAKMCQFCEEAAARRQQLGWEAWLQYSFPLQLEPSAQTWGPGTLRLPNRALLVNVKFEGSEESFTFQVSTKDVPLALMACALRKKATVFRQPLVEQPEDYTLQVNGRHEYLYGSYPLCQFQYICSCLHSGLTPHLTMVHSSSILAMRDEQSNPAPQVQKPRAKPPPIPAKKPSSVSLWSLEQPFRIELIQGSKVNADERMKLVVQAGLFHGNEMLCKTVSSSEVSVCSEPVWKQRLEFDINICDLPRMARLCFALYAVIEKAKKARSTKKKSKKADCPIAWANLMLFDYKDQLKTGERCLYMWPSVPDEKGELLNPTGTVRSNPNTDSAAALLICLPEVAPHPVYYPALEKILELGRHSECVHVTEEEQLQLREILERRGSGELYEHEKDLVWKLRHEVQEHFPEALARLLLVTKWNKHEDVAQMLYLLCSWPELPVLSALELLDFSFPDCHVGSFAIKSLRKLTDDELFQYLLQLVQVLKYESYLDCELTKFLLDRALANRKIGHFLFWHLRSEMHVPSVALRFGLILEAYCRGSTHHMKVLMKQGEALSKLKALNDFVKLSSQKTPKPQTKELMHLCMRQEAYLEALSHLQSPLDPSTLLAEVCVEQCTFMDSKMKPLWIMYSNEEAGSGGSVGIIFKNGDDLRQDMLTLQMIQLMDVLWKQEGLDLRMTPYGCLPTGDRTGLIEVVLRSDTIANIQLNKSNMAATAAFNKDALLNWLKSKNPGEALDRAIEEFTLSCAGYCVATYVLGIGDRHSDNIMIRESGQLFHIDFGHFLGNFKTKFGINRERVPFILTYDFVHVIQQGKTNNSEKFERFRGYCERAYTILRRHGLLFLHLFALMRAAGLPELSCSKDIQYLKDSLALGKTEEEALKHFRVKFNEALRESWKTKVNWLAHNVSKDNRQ
Sequence of PI3K δ (P27986 whole entry partner): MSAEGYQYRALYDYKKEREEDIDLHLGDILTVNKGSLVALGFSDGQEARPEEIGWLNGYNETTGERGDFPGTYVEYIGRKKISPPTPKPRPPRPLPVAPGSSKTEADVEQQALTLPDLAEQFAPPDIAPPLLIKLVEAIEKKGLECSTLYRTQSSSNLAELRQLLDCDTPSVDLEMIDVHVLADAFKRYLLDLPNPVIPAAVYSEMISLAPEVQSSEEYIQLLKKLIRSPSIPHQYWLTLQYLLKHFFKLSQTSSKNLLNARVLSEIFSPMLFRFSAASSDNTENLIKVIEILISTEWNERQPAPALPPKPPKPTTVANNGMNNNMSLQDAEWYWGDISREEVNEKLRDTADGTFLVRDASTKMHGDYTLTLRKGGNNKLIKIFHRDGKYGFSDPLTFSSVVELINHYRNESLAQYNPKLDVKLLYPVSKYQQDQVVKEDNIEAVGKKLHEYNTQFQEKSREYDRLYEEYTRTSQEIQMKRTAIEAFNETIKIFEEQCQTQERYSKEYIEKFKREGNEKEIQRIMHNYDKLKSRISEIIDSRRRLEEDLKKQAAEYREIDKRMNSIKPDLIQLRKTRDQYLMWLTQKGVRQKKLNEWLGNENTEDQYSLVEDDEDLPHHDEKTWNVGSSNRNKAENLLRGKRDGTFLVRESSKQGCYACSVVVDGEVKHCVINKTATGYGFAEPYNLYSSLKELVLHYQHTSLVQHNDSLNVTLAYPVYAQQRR
Sequence of PI3K β (P42338 whole entry): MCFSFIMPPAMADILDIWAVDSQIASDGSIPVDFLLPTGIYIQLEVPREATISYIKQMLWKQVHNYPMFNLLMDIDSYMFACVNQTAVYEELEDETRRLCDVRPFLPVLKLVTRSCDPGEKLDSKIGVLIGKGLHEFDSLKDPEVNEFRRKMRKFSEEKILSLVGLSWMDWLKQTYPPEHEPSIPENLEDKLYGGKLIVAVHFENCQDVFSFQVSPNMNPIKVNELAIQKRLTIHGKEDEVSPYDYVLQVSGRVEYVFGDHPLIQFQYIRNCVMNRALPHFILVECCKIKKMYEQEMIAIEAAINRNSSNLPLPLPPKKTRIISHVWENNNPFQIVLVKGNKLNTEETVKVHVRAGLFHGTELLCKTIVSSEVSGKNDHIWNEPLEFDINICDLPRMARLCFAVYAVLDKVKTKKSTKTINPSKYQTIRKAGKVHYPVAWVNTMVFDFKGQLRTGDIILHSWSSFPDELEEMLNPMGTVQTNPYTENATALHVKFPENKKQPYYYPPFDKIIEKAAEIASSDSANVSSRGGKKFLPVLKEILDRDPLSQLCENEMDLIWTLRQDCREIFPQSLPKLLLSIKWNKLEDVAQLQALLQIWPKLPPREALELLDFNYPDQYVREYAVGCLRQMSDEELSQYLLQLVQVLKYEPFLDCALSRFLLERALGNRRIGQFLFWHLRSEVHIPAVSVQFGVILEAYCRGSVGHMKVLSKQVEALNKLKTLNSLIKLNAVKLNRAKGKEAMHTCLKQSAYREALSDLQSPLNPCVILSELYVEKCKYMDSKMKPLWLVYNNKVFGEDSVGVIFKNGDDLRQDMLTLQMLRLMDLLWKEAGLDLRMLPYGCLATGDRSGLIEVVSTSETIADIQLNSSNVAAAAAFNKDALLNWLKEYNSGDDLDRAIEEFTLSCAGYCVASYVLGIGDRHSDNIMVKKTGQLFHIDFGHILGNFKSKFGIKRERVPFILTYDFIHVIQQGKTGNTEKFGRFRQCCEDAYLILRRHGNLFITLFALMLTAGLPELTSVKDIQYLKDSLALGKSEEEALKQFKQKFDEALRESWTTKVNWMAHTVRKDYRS
Sequence of PI3K β (P27986 whole entry partner): as the sequence (P27986 whole entry partner) above

SMILES	IC50 [1] [nM]	IC50 [2] [nM]	IC50 [3] [nM]	IC50 [4] [nM]	IC50 ([5]; read-out: PI3K γ IC50) [nM]	IC50 [6] [nM]	IC50 ([5]; read-out: PI3K δ IC50) [nM]
Nc1nc2cc(-c3ccc4ncc(C(=O)N5CCOCC5)n4c3)ccc2o1	< 10000	< 100	< 10000	< 10000	< 10000		
Nc1nc2cc(-c3ccc4ncn(C5CCOCC5)c(=O)c4c3)ccc2o1		< 1000	> 10000	> 10000	> 10000		
Cc1nc2ccc(-c3ccc4oc(N)nc4c3)nn2c1-c1ccncc1	< 1000	< 100	< 1000	> 10000	< 100		
CC(=O)N1CCC(Nc2ncnc3ccc(-c4ccc5oc(N)nc5c4)cc23)CC1	< 10000	< 100	< 1000	< 1000	< 100		
Nc1nc2cc(-c3ccn4ncc(-c5ccncc5)c4n3)ccc2o1	< 100	< 100	< 100	< 100	< 100		
Nc1nc2cc(-c3ccc4ncc(N5CCOCC5)nc4c3)ccc2o1	< 1000	< 100	< 10000	> 10000	< 100		
Nc1nc2cc(-c3ccc4ncc(=O)[nH]c4c3)ccc2o1	< 1000	< 100	< 1000	> 10000	< 100		
CC(C)N1CCC(n2cnc3ccc(-c4ccc5oc(N)nc5c4)cc3c2=O)CC1	< 10000	< 100	< 10000	> 10000	< 10000		
Nc1nc2cc(-c3ccc4ncc(-c5cccnc5)nc4c3)ccc2o1	> 10000	< 100	< 10000	> 10000	< 1000		
N#Cc1cnc2ccc(-c3ccc4oc(N)nc4c3)cc2c1	> 10000	< 1000	< 10000	> 10000	< 1000		
CCOC(=O)N1CCN(c2cnc3ccc(-c4ccc5oc(N)nc5c4)cc3n2)CC1	< 10000	< 100	< 10000	< 10000	< 10000		
CS(=O)(=O)N1CCN(Cc2cc3nc(-c4ccc5oc(N)nc5c4)nc(N4CCOCC4)c3s2)CC1	< 1000	< 100	< 1000	< 1000	< 100		
Nc1nc2cc(-c3ccc4ncc(N5CCNC(=O)C5)nc4c3)ccc2o1	< 1000	< 100	> 10000	> 10000	< 1000		
CC(=O)N1CCC(N(C)c2ncnc3ccc(-c4ccc5oc(N)nc5c4)cc23)CC1	< 1000	< 100	> 10000	< 1000	< 1000		
CN1CC(C(=O)N2CCN(c3cnc4ccc(-c5ccc6oc(N)nc6c5)cc4n3)CC2)C1	< 1000	< 100	> 10000	< 1000	< 1000		
Nc1nc2cc(-c3ccc4ncc(N5CCC(N6CCOCC6)CC5)nc4c3)ccc2o1	< 1000	< 100	> 10000	< 1000	< 1000		
CN(C)[C@@H]1CCN(c2cnc3ccc(-c4ccc5oc(N)nc5c4)cc3n2)C1	< 100	< 100	< 1000			< 10000	< 10000
CN1CCN([C@@H]2CCN(c3cnc4ccc(-c5ccc6oc(N)nc6c5)cc4n3)C2)CC1	< 1000	< 100	< 10000			< 10000	> 10000
Nc1nc2cc(-c3ccc4ncc(N5CCNC(C(F)(F)F)C5)nc4c3)ccc2o1 (centres unmarked)	< 1000	< 100	< 1000			< 10000	< 1000
CC1(C)CN(C2CN(c3cnc4ccc(-c5ccc6oc(N)nc6c5)cc4n3)C2)CCN1	< 1000	< 100	< 100			< 1000	< 1000
COc1ncc(-c2ccc3ncc(C(=O)N4CCOCC4)n3c2)cc1NS(=O)(=O)c1ccc(F)cc1F	< 100	< 100	< 1000			< 100	< 100
CS(=O)(=O)Nc1cc(-c2ccc3ncc(C(=O)N4CCOCC4)n3c2)cnc1Cl	< 100	< 100	< 100			< 100	< 100
O=C(c1cnc2ccc(-c3cnc(Cl)c(NS(=O)(=O)c4ccc(F)cc4F)c3)cn12)N1CCOCC1	< 100	< 100	< 1000			< 100	< 100
C[C@H]1CN(c2cnc3ccc(-c4ccc5oc(N)nc5c4)nc3c2)CCN1	< 100	< 100	> 10000	< 10000	< 1000		
Cc1nccn1C1CN(c2cnc3ccc(-c4ccc5oc(N)nc5c4)nc3n2)C1	< 10000	< 100	> 10000	< 10000	< 10000		

SMILES	IC50 [1] [nM]	IC50 [2] [nM]	IC50 [3] [nM]	IC50 [4] [nM]	IC50 ([5]; read-out: PI3K γ IC50) [nM]	IC50 [6] [nM]	IC50 ([5]; read-out: PI3K δ IC50) [nM]
CC1(C)CN(C2CN(c3cnc4ccc(-c5ccc6oc(N)nc6c5)nc4n3)C2)CCN1	< 10000	< 100	> 10000	< 1000	< 10000		
Nc1nc2cc(-c3ccc4ncc(N5CC(N6CCOCC6)C5)cc4n3)ccc2o1	< 10000	< 100	> 10000	< 10000	< 1000		
C[C@H]1CN(C2CN(c3cnc4ccc(-c5ccc6oc(N)nc6c5)nc4c3)C2)CCN1	< 10000	< 100	> 10000	< 1000	< 10000		
C[C@H]1CN(C2CN(c3cnc4ccc(-c5ccc6oc(N)nc6c5)nc4c3)C2)CCN1C	< 10000	< 100	> 10000	< 1000	< 10000		
C[C@@H]1CN(C2CN(c3cnc4ccc(-c5ccc6oc(N)nc6c5)nc4c3)C2)CCN1	< 10000	< 100	> 10000	< 1000	< 1000		
C[C@@H]1CN(C2CN(c3cnc4ccc(-c5ccc6oc(N)nc6c5)nc4c3)C2)CCN1C	< 10000	< 100	> 10000	< 1000			
CC1(C)CN(C2CN(c3cnc4ccc(-c5ccc6oc(N)nc6c5)nc4c3)C2)CCN1	< 10000	< 100	> 10000	< 1000	< 1000		
Nc1nc2cc(-c3ccc4ncc(N5CC(N6CCN(CC7CC7)CC6)C5)cc4n3)ccc2o1	< 10000	< 100	> 10000	< 1000	< 10000		
C[C@H]1COCCN1C1CN(c2cnc3ccc(-c4ccc5oc(N)nc5c4)nc3n2)C1	> 10000	< 100	> 10000	< 10000			
Cc1nccn1C1CN(c2cnc3ccc(-c4ccc5oc(N)nc5c4)nc3c2)C1	< 10000	< 100	> 10000	< 1000	< 100		
CN1CCN(C2CN(c3cnc4ccc(-c5ccc6oc(N)nc6c5)nc4c3)C2)CC1=O	< 10000	< 100	< 10000	< 1000	< 100		
Nc1nc2cc(-c3ccc4ncc(N5CC(N6CCN(CCO)CC6)C5)cc4n3)ccc2o1	< 10000	< 100	> 10000	< 1000	< 1000		
CN1CCN(C2CN(c3cnc4ccc(-c5ccc6oc(N)nc6c5)nc4n3)C2)CC1	< 10000	< 100	> 10000	< 1000	> 10000		
CCN1CCN(C2CN(c3cnc4ccc(-c5ccc6oc(N)nc6c5)nc4n3)C2)CC1	< 10000	< 100	< 10000	< 10000	< 10000		
Cn1cc(-c2ccnc3ccc(-c4ccc5oc(N)nc5c4)cc23)cn1 [Compound 26]		< 100	< 1000	< 100	< 100		
CN1CCC(Nc2ncnc3ccc(-c4ccc5oc(N)nc5c4)cc23)CC1 [Compound 35]		< 100	< 10000	< 100	< 100		
CN1CCC(n2cnc3ccc(-c4ccc5oc(N)nc5c4)cc3c2=O)CC1 [Compound 36]		< 100	< 10000	< 10000	> 10000		
Nc1nc2cc(-c3ccc4nccn4c3)ccc2o1 [Compound 40]		< 10000	< 10000	> 10000	< 10000		
Cn1cc(-c2cnc3ccc(-c4ccc5oc(N)nc5c4)cn23)cn1 [Compound 41]		< 100	< 10000	< 1000	< 1000		
CN1CCN(c2ccc(-c3cnc4ccc(-c5ccc6oc(N)nc6c5)cn34)cn2)CC1 [Compound 42]		< 100	> 10000	< 1000	< 1000		
CN1CCN(C(=O)c2cnc3ccc(-c4ccc5oc(N)nc5c4)cn23)CC1 [Compound 44]		< 100	< 10000	< 10000	< 10000		
N#Cc1cnc2ccc(-c3ccc4oc(N)nc4c3)cc2c1-c1ccncc1 [Compound 46]		< 100	< 100	< 100	< 100		
Nc1nc2cc(-c3ccc4ncc(OC5CCOCC5)nc4c3)ccc2o1 [Compound 49]		< 100	< 10000	< 10000	< 1000		
Nc1nc2cc(-c3ccc4ncc(-c5ccc6nc(N)oc6c5)n4c3)ccc2o1 [Compound 50]		< 100	> 10000	< 10000	< 100		
Nc1nc2cc(-c3ccc4ncc(-c5ccnc(N6CCOCC6)c5)n4c3)ccc2o1 [Compound 52]		< 100	< 10000	< 100	< 100		
